Series [1] deals with Wistar rats with spinal cord injury. Description: Spinal cord injury model (20 g compression on lower thoracic cord for 20 minutes). In kind it is in vivo, rat. From the text: The present inventors have investigated the effects of repetitive or continuous intravenous administration of ginsenoside Rb1 using rats with spinal cord injury and the effects were compared with those of repetitive or continuous intravenous administration of a crude saponin fraction of medicinal ginseng. If pressure is loaded on certain spinal segments such as the lower thoracic cord, not only nerve cells (neurons) in the gray matter of the same region but also fiber tracts or pathways in the white matter of the same region are damaged. The damages to the fiber tracts or pathways of the white matter are further developed to the distal portions (caudal portions) as well as causing the secondary degeneration of the origins of the fiber tract or pathways, namely the upper nerve cell bodies (i.e. origins) which project fibers (nerve processes) to the fiber tracts or pathways. As a result, the damages to the fiber tracts or pathways of the white matter in the lower thoracic cord, which received compression loading, induce the secondary degeneration of the origins (nerve cell bodies) sending fibers (also termed nerve processes or axons) to the fiber tracts or pathways as well as the secondary degeneration of fiber tracts located distal to the lower thoracic cord (i.e. lumbar cord and sacral cord) to cause paraplegia of both limbs. Further, since the innervation from the brain regions proximal to the lumbar cord and sacral cord is cut off due to damage to the lower thoracic cord, the secondary degeneration of nerve cells in the gray matters of the lumbar cord and sacral cord is further induced, as a result, paraplegia of the limbs can not be recovered. For that model of the spinal cord injury, the present inventors have used male Wistar rats (body weight about 300 g) loaded with 20 g of compression on the lower thoracic cord for 20 minutes.
Under inhalation anesthesia by a mixture of nitrous oxide and halothane, the rats were loaded with 20 g of compression on the lower thoracic cord for 20 minutes. After more than 30 minutes passed, ginsenoside Rb1 dissolved in physiological saline was injected once into the left femoral vein (12 μg or 60 μg), thereafter continuous or repetitive intravenous administration of ginsenoside Rb1 was performed for 7 days by using an Alza osmotic minipump (12 μg/day or 60 μ/day). Control animals and sham-operated animals were administered with the same amount of physiological saline (vehicle) alone. The open field locomotor scores [Basso, Bettie and Bresnakan (BBB) scores] were measured in each animal before loading spinal cord injury, on the day of spinal cord injury and from 1st day to 7th day after the spinal cord injury for use as an index of motor functions (Basso D. M. et al., J. Neurotrauma, 13, 343-359, 1996). BBB scores of the sham-operated rats (normal rats) were 20-21.
Under inhalation anesthesia by a mixture of nitrous oxide and halothane, the rats were loaded with 20 g of compression on the lower thoracic cord for 20 minutes. More than 30 minutes later, the crude saponin fraction dissolved in physiological saline was infused once into the left femoral vein (870 μg), thereafter continuous intravenous administration of the crude saponin fraction was performed for 7 days by using an Alza osmotic minipump (870 μg/day). Control animals with spinal cord injuries were administered with the same amount of physiological saline (vehicle) alone. […] These figures are photographs in place of drawings.
Under inhalation anesthesia by a mixture of nitrous oxide and halothane, wistar rats (body weight about 300 g) were loaded with 20 g of compression on the lower thoracic cord for 20 minutes. After they were awakened from anesthesia, the rats with paraplegia in both hindlimbs were allowed to stay for 1 hour and 40 minutes in the cage. […]

The nature of series [2]: Cerebral blood flow, brain temperature, blood pressure. The conditions noted are these: intravenous infusion 60 μg/day.
Series [3] is described as follows: Observation of animals for ill or adverse effects. In kind it is in vivo. The conditions noted are these: present experiments.
The test system of series [4] is co-cultures of nerve cells (neurons) and oligodendrocytes. In words: Co-culture of nerve cells and oligodendrocytes, Western blotting of MAP2 and CNPase. In kind it is cell-based, rat. The source says: As generally known, in myelinated nerve fibers within brain and nervous tissues, oligodendrocytes form myelin by ensheathing axons of neurons repeatedly. Further, in unmyelinated nerve fibers, processes of oligodendrocytes surround axons of neurons only once. In the brain and nervous tissues, nerve cells (neurons) and oligodendrocytes are at any time holding close positional relationship. The present inventors performed co-cultures of nerve cells and oligodendrocytes to investigate whether or not ginsenoside Rb1 promotes survival of both cells. For that purpose, nerve cells (neurons) were isolated from cerebral cortices of fetal rats at gestational day 17. The mixed brain cell culture was initiated to isolate oligodendrocytes by using the forebrain of newborn rats. Fifty thousands of oligodendrocytes and 500,000 nerve cells were cocultured. To this culture system was added 1 fg/ml to 10 pg/ml ginsenoside Rb1 in DMEM containing 1% fetal calf serum, and the mixed cells were cultured for 5 days. Subsequently, samples for electrophoresis were prepared and contents of the neuron-specific protein MAP2 (microtubule-associated protein 2) and the oligodendrocyte-specific protein CNPase (cyclic nucleotide […]) in the culture well were assayed by means of Western blotting. […]
(In general: Immunoblotting shows a protein as a band on a membrane.)

These results are taken from patent US7235267B1, “Brain cell or nerve cell-protecting agents comprising medicinal ginseng” (priority 1999, dated 2007).

Consider `CC(C)=CCC[C@](C)(O[C@@H]1O[C@H](CO[C@@H]2O[C@H](CO)[C@@H](O)[C@H](O)[C@H]2O)[C@@H](O)[C@H](O)[C@H]1O)[C@H]1CC[C@]2(C)[C@@H]1[C@H](O)C[C@@H]1[C@@]3(C)CC[C@H](O[C@@H]4O[C@H](CO)[C@@H](O)[C@H](O)[C@H]4O[C@@H]4O[C@H](CO)[C@@H](O)[C@H](O)[C@H]4O)C(C)(C)[C@@H]3CC[C@]12C` [ginsenoside Rb1], for which the “healing of the operative dorsal wounds / ill effects” value in series [1] (compared with rats administered with physiological saline) is “no such ill effects”. In series [1] (ginsenoside Rb1 intravenous 12 μg/day and 60 μg/day), the “motor abilities (BBB scores) at the 7th day after spinal cord injury” value was “significantly ameliorated in a dose-dependent manner”. Besides, in series [1] (ginsenoside Rb1 intravenous 60 μg/day starting 2 hours after spinal cord injury), the “bedsore (decubitus)” value was “hardly observed”. Also, the “paraplegia of both hindlimbs” value in series [1] (ginsenoside Rb1 intravenous 60 μg/day starting 2 hours after spinal cord injury, from 3-4 days after onset) is listed as “gradually ameliorated”; in series [1] (ginsenoside Rb1 intravenous 60 μg/day starting more than 30 minutes after compression, 1-2 days later) it was “significantly ameliorated”. Besides, the cerebral blood flow entry in series [2] was “does not affect”. In addition, the “ill / adverse effects on careful observation of animals” value in series [3] is listed as “No adverse effect was detected”. In series [4] (1 fg/ml to 100 fg/ml, 5 days, vs non-added and 10^4 fg/ml groups), the “band of MAP2 and band of CNPase (survival of nerve cells and oligodendrocytes)” value is on record as “obviously intense”. Besides, the “concentrations that made intense the MAP2 and CNPase bands” value in series [4] (FIG. 22) lay in the range of 1 to 100 fg/mL.
